The source of these data is US8901111B2, “Aryl-substituted heterocyclic urea modulators of fatty acid amide hydrolase” (Janssen Pharmaceutica NV, priority 2009, dated 2014).

Structures can show the parent of a compound that is named as a salt.

The target of one assay is T1, rat FAAH (Rattus norvegicus, UniProt P97612).
T1 construct: expressed in transfected cells; crude homogenate
T1 sequence (P97612 1-579): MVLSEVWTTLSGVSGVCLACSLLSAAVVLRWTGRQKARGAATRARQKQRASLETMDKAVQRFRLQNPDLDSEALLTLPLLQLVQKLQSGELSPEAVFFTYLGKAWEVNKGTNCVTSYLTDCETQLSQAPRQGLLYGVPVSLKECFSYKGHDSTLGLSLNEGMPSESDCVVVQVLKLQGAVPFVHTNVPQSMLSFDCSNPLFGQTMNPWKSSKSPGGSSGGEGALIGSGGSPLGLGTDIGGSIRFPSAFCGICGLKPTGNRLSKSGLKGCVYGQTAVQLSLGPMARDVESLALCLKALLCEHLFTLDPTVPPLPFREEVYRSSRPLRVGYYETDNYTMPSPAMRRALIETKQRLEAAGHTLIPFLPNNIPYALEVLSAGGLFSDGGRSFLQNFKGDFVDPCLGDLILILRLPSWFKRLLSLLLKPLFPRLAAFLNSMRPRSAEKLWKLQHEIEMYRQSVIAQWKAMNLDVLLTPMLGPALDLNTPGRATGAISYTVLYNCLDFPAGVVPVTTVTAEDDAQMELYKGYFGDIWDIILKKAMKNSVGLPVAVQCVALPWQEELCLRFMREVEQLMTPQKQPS
The assay can be described thus: Assay Method 2: FAAH assay, 3H-anandamide hydrolysis in homogenate of cells transfected with rat FAAH. In kind it is biochemical. Particulars: cell homogenate, 3H-AEA 80 nM, 1 h at rt, average of results. The method, then:
A. Transfection of Cells with Rat FAAH
(§1) A 10-cm tissue culture dish with a confluent monolayer of SK-N-MC cells was split 2 days (d) prior to transfection. Using sterile technique, the media was removed and the cells were detached from the dish by the addition of trypsin. One fifth of the cells were then placed onto a new 10-cm dish. Cells were grown in a 37° C. incubator with 5% CO2 in Minimal Essential Media Eagle with 10% Fetal Bovine Serum. After 2 d, cells were approximately 80% confluent. These cells were removed from the dish with trypsin and pelleted in a clinical centrifuge. The pellet was re-suspended in 400 μL complete media and transferred to an electroporation cuvette with a 0.4 cm gap between the electrodes. Supercoiled rat FAAH cDNA (1 μg) was added to the cells and mixed. The voltage for the electroporation was set at 0.25 kV, and the capacitance was set at 960 μF. After electroporation, the cells were diluted into complete media (10 mL) and plated onto four 10-cm dishes. Because of the variability in the efficiency of electroporation, four different concentrations of cells were plated. The ratios used were 1:20, 1:10, and 1:5, with the remainder of the cells being added to the fourth dish. The cells were allowed to recover for 24 h before adding the selection media (complete media with 600 μg/mL G418). After 10 d, dishes were analyzed for surviving colonies of cells. Dishes with well-isolated colonies were used. Cells from individual colonies were isolated and tested.
(§2) T84 frozen cell pellets or transfected SK-N-MC cells (contents of 1×15 cm culture dishes) were homogenized in 50 mL of FAAH assay buffer (125 mM Tris, 1 mM EDTA, 0.2% Glycerol, 0.02% Triton X-100, 0.4 mM Hepes, pH 9). The assay mixture consisted of 50 μL of the cell homogenate, 10 μL of the test compound, and 40 μL of anandamide [1-^3H-ethanolamine] (^3H-AEA, Perkin-Elmer, 10.3 Ci/mmol), which was added last, for a final tracer concentration of 80 nM. The reaction mixture was incubated at rt for 1 h. During the incubation, 96-well Multiscreen filter plates (catalog number MAFCNOB50; Millipore, Bedford, Mass., USA) were loaded with 25 μL of activated charcoal (Multiscreen column loader, catalog number MACL09625, Millipore) and washed once with 100 μL of MeOH. Also during the incubation, 96-well DYNEX MicroLite plates (catalog number NL510410) were loaded with 100 μL of MicroScint40 (catalog number 6013641, Packard Bioscience, Meriden, Conn., USA). After the 1 h incubation, 60 μL of the reaction mixture were transferred to the charcoal plates, which were then assembled on top of the DYNEX plates using Centrifuge Alignment Frames (catalog number MACF09604, Millipore). The unbound labeled ethanolamine was centrifuged through to the bottom plate (5 min at 2000 rpm), which was preloaded with the scintillant, as described above. The plates were sealed and left at rt for 1 h before counting on a Hewlett Packard TopCount.
(§3) Results for compounds tested in these assays are summarized in Table 1, as an average of results obtained. Compounds were tested in the free base or trifluoroacetic acid salt form. Compounds tested in the trifluoroacetic acid salt form are indicated as such by a “*” designation after the example number. Where activity is shown as greater than (>) a particular value, the value is the solubility limit of the compound in the assay medium or the highest concentration tested in the assay.

In a further assay the target is T2, FAAH (Homo sapiens, UniProt O00519).
T2 sequence (O00519 1-579): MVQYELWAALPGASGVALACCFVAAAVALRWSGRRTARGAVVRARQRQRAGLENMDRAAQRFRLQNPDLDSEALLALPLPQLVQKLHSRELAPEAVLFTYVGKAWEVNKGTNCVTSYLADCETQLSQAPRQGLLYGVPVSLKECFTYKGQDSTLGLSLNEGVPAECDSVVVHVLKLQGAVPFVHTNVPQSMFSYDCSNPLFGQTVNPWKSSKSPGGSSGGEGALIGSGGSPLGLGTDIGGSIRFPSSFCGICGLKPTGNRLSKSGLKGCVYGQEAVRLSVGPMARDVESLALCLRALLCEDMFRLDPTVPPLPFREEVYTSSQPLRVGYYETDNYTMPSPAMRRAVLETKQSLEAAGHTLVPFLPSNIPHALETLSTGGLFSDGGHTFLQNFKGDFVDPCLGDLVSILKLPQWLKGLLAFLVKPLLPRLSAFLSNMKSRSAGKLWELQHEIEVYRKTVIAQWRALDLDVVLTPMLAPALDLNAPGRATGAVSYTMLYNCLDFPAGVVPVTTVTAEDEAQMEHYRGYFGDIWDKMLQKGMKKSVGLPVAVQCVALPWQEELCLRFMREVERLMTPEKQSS
As to the kind of experiment: Assay Method 1: FAAH assay, 3H-anandamide hydrolysis in homogenate of cells transfected with human FAAH. In kind it is biochemical. The arrangement: expressed in transfected cells; crude homogenate (T84 cell pellets named as alternative). The conditions noted are these: cell homogenate, 3H-AEA 80 nM, 1 h at rt, average of results. Here is the method:
A. Transfection of Cells with Human FAAH
as §1, with “Supercoiled human” for “Supercoiled rat”, “[…]” for “960 μF.”
as §2, §3

On to `O=C(Nc1cnc2cccnn12)N1CC(CCOc2cccc(Oc3ccc(Cl)cc3)c2)C1` [Example 1, 3-{2-[3-(4-Chloro-phenoxy)-phenoxy]-ethyl}-azetidine-1-carboxylic acid imidazo[1,2-b]pyridazin-3-ylamide], for which the concentration for half-maximal inhibition (IC50) (usually the concentration that inhibits the measured activity by half) at rat FAAH came out at 4 nM; on FAAH it was 5 nM. Consider `O=C(Nc1cccnc1)N1CC(COc2ccccc2)C1` [Example 2, 3-Phenoxymethyl-azetidine-1-carboxylic acid pyridin-3-ylamide, trifluoroacetate salt], for which the 50% inhibitory concentration (IC50) on rat FAAH and against FAAH was more than 10000 nM throughout. With `O=C(Nc1cccnc1)N1CC(COc2ccc(Br)cc2)C1` [Example 3, 3-(4-Bromo-phenoxymethyl)-azetidine-1-carboxylic acid pyridin-3-ylamide], the half-inhibitory concentration (IC50) against rat FAAH and against FAAH was more than 10000 nM in each case. As for `O=C(Nc1cccnc1)N1CC(COc2ccc(OC(F)(F)F)cc2)C1` [Example 5, 3-(4-Trifluoromethoxy-phenoxymethyl)-azetidine-1-carboxylic acid pyridin-3-ylamide], the results for the IC50 against rat FAAH and against FAAH were 3000 nM and more than 10000 nM, respectively. In the case of `O=C(Nc1cccnc1)N1CC(COc2cccc(OC(F)(F)F)c2)C1` [Example 6, 3-(3-Trifluoromethoxy-phenoxymethyl)-azetidine-1-carboxylic acid pyridin-3-ylamide], the IC50 against rat FAAH stood at 175 nM; against FAAH, 1100 nM.

In the case of `O=C(Nc1cccnc1)N1CC(COc2ccc3c(c2)OCO3)C1` [Example 7, 3-(Benzo[1,3]dioxol-5-yloxymethyl)-azetidine-1-carboxylic acid pyridin-3-ylamide], the IC50 against rat FAAH and against FAAH was more than 10000 nM each time.

Take `O=C(Nc1cccnc1)N1CC(COc2cccc(C(F)(F)F)c2)C1` [Example 8, 3-(3-Trifluoromethyl-phenoxymethyl)-azetidine-1-carboxylic acid pyridin-3-ylamide, trifluoroacetate salt]: the values for the IC50 against rat FAAH and against FAAH were 620 nM and 2400 nM, respectively. For the compound `O=C(Nc1cccnc1)N1CC(COc2ccc3ccccc3n2)C1` [Example 9, 3-(Quinolin-2-yloxymethyl)-azetidine-1-carboxylic acid pyridin-3-ylamide], the 50% inhibitory concentration (IC50) at rat FAAH and at FAAH was 1300 nM in each case. Regarding `O=C(Nc1cccnc1)N1CC(COc2ccc(C(F)(F)F)c(Cl)c2)C1` [Example 10, 3-(3-Chloro-4-trifluoromethyl-phenoxymethyl)-azetidine-1-carboxylic acid pyridin-3-ylamide], the IC50 against rat FAAH came to 300 nM; against FAAH, 1400 nM.

In the case of `C#Cc1cccc(OCC2CN(C(=O)Nc3cccnc3)C2)c1` [Example 11, 3-(3-Ethynyl-phenoxymethyl)-azetidine-1-carboxylic acid pyridin-3-ylamide], the half-inhibitory concentration (IC50) against rat FAAH came out at 1600 nM; at FAAH, 370 nM.

For `CCCCOc1cccc(OCC2CN(C(=O)Nc3cccnc3)C2)c1` [Example 12, 3-(3-Butoxy-phenoxymethyl)-azetidine-1-carboxylic acid pyridin-3-ylamide], the half-maximal inhibitory concentration (IC50) against rat FAAH is more than 10000 nM; against FAAH, 300 nM.

Regarding `O=C(Nc1cccnc1)N1CC(COc2ccc3c(c2)CCCC3)C1` [Example 13, 3-(5,6,7,8-Tetrahydro-naphthalen-2-yloxymethyl)-azetidine-1-carboxylic acid pyridin-3-ylamide], the 50% inhibitory concentration (IC50) is 1700 nM against rat FAAH and 2500 nM against FAAH.

For `O=C(Nc1cccnc1)N1CC(COc2ccc3cccnc3c2)C1` [Example 14, 3-(Quinolin-7-yloxymethyl)-azetidine-1-carboxylic acid pyridin-3-ylamide], the IC50 against rat FAAH and at FAAH was more than 10000 nM in each case. On FAAH, `O=C(Nc1cccnc1)N1CC(CCOc2ccc(OC(F)(F)F)cc2)C1` [Example 30, 3-[2-(4-Trifluoromethoxy-phenoxy)-ethyl]-azetidine-1-carboxylic acid pyridin-3-ylamide] gave an IC50 of more than 10000 nM. For `O=C(Nc1cccnc1)N1CCC(CCOc2ccc(Cl)c(Cl)c2)C1` (centres unmarked) [Example 53, 3-[2-(3,4-Dichloro-phenoxy)-ethyl]-pyrrolidine-1-carboxylic acid pyridin-3-ylamide], half-maximal inhibition at FAAH (IC50) required 6000 nM. `O=C(Nc1cnccc1Cl)N1CCC(CCOc2ccc(OC(F)(F)F)cc2)C1` (centres unmarked) [Example 62, 3-[2-(4-Trifluoromethoxy-phenoxy)-ethyl]-pyrrolidine-1-carboxylic acid (4-chloro-pyridin-3-yl)-amide]: the IC50 against FAAH stood at 1300 nM. Turning to `O=C(Nc1cccnc1)N1CC(CCOCc2ccccc2)C1` [Example 69, 3-(2-Benzyloxy-ethyl)-azetidine-1-carboxylic acid pyridin-3-ylamide], at rat FAAH, the 50% inhibitory concentration (IC50) is more than 10000 nM.

On to `O=C(Nc1cnccc1Cl)N1CC(CCOCc2ccccc2)C1` [Example 70, 3-(2-Benzyloxy-ethyl)-azetidine-1-carboxylic acid (4-chloropyridin-3-yl)-amide], for which half-maximal inhibition against FAAH (IC50) was put at 936 nM.

For the compound `O=C(Nc1cccc2nonc12)N1CCC(Cc2ccc3c(c2)OC(F)(F)O3)C1` (centres unmarked) [Example 73, N-2,1,3-Benzoxadiazol-4-yl-3-[(2,2-difluoro-1,3-benzodioxol-5-yl)methyl]pyrrolidine-1-carboxamide], the IC50 against FAAH is more than 10000 nM.
